The text below walks through data of ChEMBL document CHEMBL3526156, “Bioactivation of the cancer chemopreventive agent tamoxifen to quinone methides by cytochrome P4502B6 and identification of the modified residue on the apoprotein” (Drug Metab Dispos, 2012).

What all share (type): ADME
Series [1] has as its target T1, Cytochrome P450 2B6 (Homo sapiens, UniProt P20813).
T1 sequence (P20813 whole entry): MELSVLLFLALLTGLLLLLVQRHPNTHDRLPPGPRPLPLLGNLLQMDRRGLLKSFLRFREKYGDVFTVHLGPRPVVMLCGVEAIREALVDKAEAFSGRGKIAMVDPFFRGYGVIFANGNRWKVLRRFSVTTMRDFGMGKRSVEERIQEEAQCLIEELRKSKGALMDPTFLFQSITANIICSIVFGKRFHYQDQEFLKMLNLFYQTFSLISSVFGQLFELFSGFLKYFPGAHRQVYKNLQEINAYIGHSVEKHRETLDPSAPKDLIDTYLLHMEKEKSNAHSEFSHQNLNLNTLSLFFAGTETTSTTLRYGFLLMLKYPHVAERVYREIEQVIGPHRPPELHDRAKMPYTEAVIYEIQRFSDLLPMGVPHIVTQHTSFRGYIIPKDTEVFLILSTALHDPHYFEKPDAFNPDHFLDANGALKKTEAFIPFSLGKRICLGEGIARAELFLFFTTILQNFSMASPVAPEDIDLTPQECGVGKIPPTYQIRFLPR
Kind of series: Activity at CYP2B6 (unknown origin) expressed Escherichia coli C41 DE3 cells assessed as enzyme-mediated 4-hydroxytamoxifen quinone methide metabolite formation by measuring reactive metabolite adduct with GSHEE at 90 uM by LC-MS/MS analysis.

Series [2] in a line: Drug metabolism in human liver microsomes assessed as compound formation by measuring retention time at 90 uM by LC-MS/MS analysis.
Series [3] deals with T1, Cytochrome P450 2B6. The series is described as follows: Activity at CYP2B6 (unknown origin) expressed Escherichia coli C41 DE3 cells assessed as compound formation by measuring retention time treated with tamoxifen at 60 uM by LC-MS/MS analysis.
For series [4], the target named is T1, Cytochrome P450 2B6. The series is described as follows: Activity at CYP2B6 (unknown origin) expressed Escherichia coli C41 DE3 cells assessed as compound formation by measuring retention time treated with 4-hydroxytamoxifen at 90 uM by LC-MS/MS analysis.
Series [5] addresses T1, Cytochrome P450 2B6. Kind of series: Inactivation of CYP2B6 (unknown origin) expressed in Escherichia coli C41 DE3 cells assessed as modified apo-P450 2B6 adduct formation at 60 uM by ESI-LC-MS analysis in presence of NADPH and GSHEE.
For series [6], the target named is T1, Cytochrome P450 2B6. Kind of series: Inactivation of CYP2B6 (unknown origin) expressed in Escherichia coli C41 DE3 cells assessed as modified apo-P450 2B6 adduct formation at 60 uM after 10 mins by ESI-LC-MS analysis in presence of NADPH.

Regarding `CCC(=C(c1ccc(O)cc1)c1ccc(OCCN(C)C)cc1)c1ccccc1`, the Retention time at Cytochrome P450 2B6 [1] was determined as 16.9 min.

In the case of `C/C=C(/C(=C1C=CC(=O)C=C1)c1ccc(OCCN(C)C)cc1)c1ccccc1`, the figures for the Retention_time (in series [2]; on Cytochrome P450 2B6 [3]; on Cytochrome P450 2B6 [4]) were 16.6 min, 18.3 min and 16.9 min, respectively.

As to `CC/C(=C(\c1ccccc1)c1ccc(OCCN(C)C)cc1)c1ccccc1` [TAMOXIFEN], the outcome on Cytochrome P450 2B6 [5] and on Cytochrome P450 2B6 [6] was Active.
